Assay results taken from US11371055B2, “Herbicide resistance genes” (CORTEVA AGRISCIENCE LLC, priority 2005, dated 2022).

Legend:
[1] = system: F1 stack of AAD-12 (v1) (pDAB4101) and BE1146RR corn; assay: Herbicide tolerance of F1 stack AAD-12 (v1) x BE1146RR corn; format: in vivo, Zea mays; conditions: 1120 g ae/ha 2,4-D DMA
Excerpt: AAD-12 (v1) (pDAB4101) and elite Roundup Ready inbred (BE1146RR) were reciprocally crossed and F1 seed was collected. The seed from two F1 lines were planted and treated with 70 g ae/ha imazethapyr at the V2 stage to eliminate nulls. To the surviving plants, reps were separated and either treated with 1120 g ae/ha 2,4-D DMA+70 g ae/ha imazethapyr (to confirm presence of AHAS gene) or 1120 g ae/ha 2,4-D DMA+1680 g ae/ha glyphosate (to confirm the presence of the Round Up Ready gene) in a track sprayer calibrated to 187 L/ha. Plants were graded 3 and 16 DAT.

[2] = system: AAD-2 (v1) transformed T1 Arabidopsis; assay: 2,4-D dose response of AAD-2 (v1) transformed T1 Arabidopsis; format: in vivo, Arabidopsis thaliana; conditions: 200 g ae/ha 2,4-D
Method: Freshly harvested T1 seed transformed with a plant optimized AAD-12 (v1) or native AAD-2 (v1) gene were planted and selected for resistance to glufosinate as previously described Plants were then randomly assigned to various rates of 2,4-D (50-3200 g ae/ha). Herbicide applications were applied by track sprayer in a 187 L/ha spray volume. 2,4-D used was the commercial dimethylamine salt formulation (456 g ae/L, NuFarm, St Joseph, Mo.) mixed in 200 mM Tris buffer (pH 9.0) or 200 mM HEPES buffer (pH7.5).

[3] = system: PHL tobacco suspension co-cultivated with Agrobacterium carrying pDAB724; assay: Tobacco cell transformation with AAD-12 (v1) and 2,4-D selection; format: cell-based
Method: For tobacco transformation experiment, there were 11 treatments altogether: a control set plated on LS-BY2C+dichlorprop medium, and 10 sets of LSBY2C+dichlorprop+2,4-D at varying concentration levels (1, 2, 3, 5, 8, 10, 12, 15, 18, 20 mg/L). There were four replications per treatment. The plasmid DNA vector used was pDAB724, and the vector used for transformation was EHA101S strain of Agrobacterium tumefaciens. Four ml of PHL suspension at 0.6 OD^660 were mixed with 100 ul of Agrobacterium (either EHA101 or LBA4404 strains) suspension at 1.0 OD^660 in a sterile Petri plate and were mixed thoroughly and co-cultivated together in a non-shake condition at a dark growth chamber for 3 days at 25° C. After the co-cultivation period 1.5 ml of the Agro-tobacco suspension mixture was plated to the 11 set of plates above. […] Again, there were four replicates per treatment, as well as a positive and negative control. All media contain 500 mg/L Carbenicillin (C) to control to contain Agrobacterium growth in the selection media.
The plasmid used in these experiments is pDAB724 and it has PAT selectable marker as well. So, control transformation experiments were initiated using R-dichlorprop habituated PHL in the presence of 10 mg/L bialophos following the standard protocol described above. […]

[4] = system: AAD-12 (v1) transformed T0 tobacco events (pDAS1580); assay: Postemergence herbicide tolerance in T0 tobacco; format: in vivo, Nicotiana tabacum; conditions: 560 g ae/ha fluroxypyr
Excerpt: T0 plants from each of the 19 events were challenged with a wide range of 2,4-D, triclopyr, or fluroxypyr sprayed on plants that were 3-4 inches tall. Spray applications were made as previously described using a track sprayer at a spray volume of 187 L/ha. 2,4-D dimethylamine salt (Riverside Corp) was applied at 0, 140, 560, or 2240 g ae/ha to representative clones from each event mixed in deionized water. Fluroxypyr was likewise applied at 35, 140, or 560 g ac/ha. Triclopyr was applied at 70, 280, or 1120 g ae/ha. Each treatment was replicated 1-3 times. Injury ratings were recorded 3 and 14 DAT. Every event tested was more tolerant to 2,4-D than the untransformed control line KY160. In several events, some initial auxinic herbicide-related epinasty occurred at doses of 560 g ae/ha 2,4-D or less. Some events were uninjured at 2,4-D applied at 2240 g ac/ha (equivalent to 4× field rate). On the whole, AAD-12 (v1) events were more sensitive to fluroxypyr, followed by triclopyr, and least affected by 2,4-D. The quality of the events with respect to magnitude of resistance was discerned using T0 plant responses to 560 g ae/ha fluroxypyr. Events were categorized into “low” (>40% injury 14 DAT), “medium” (20-40% injury), “high” (<20% injury). Some events were inconsistent in response among replicates and were deemed “variable.”

AAD-12 (v2) = molecular target: T1, AAD-12 (v2) (Delftia acidovorans, UniProt P83309); assay: Chloropyridinol detection assay (absorbance at 325 nm); format: biochemical
T1 construct: made in house; host or cells: Pseudomonas fluorescens strain MB324 (construct pDAB739)
T1 sequence (P83309 whole entry, looked up, natural form): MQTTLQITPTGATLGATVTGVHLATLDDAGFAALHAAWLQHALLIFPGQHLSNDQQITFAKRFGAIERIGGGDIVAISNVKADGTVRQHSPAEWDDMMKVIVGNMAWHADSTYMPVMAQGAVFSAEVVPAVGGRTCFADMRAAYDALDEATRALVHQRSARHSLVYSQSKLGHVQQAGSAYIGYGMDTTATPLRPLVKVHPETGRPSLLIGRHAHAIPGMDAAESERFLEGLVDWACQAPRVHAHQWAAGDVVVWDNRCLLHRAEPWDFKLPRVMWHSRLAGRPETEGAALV
Excerpt: AAD-12 action on potential substrates such as the herbicide triclopyr containing a substituted pyridine (rather than benzene rings) will release a pyridinol on cleavage of the aryloxyalkanoate bond. Pyridinols were not detected using the aminoantipyrine/ferricyanide phenol detection described in the preceding section. […] This was used to create a continuous microplate-based spectrophotometric assay.
All five pyridyloxyalkanoates were cleaved to release pyridinols by AAD-12 (v2). The rates for the oxypropionate substrates 116844 and 91767 were somewhat faster than those for the corresponding acetates (triclopyr and 93833 respectively) indicating a preference of AAD-12 (v2) for oxypropionate over oxyacetate side chains.

Structure (SMILES): CNC.O=C(O)COc1ccc(Cl)cc1Cl [2,4-D DMA]
- Average % Injury 16DAT ([1]; AAD-12 (v1) pDAB4101(0)003.R003.AF): 0%
- Average % Injury 16DAT ([1]; AAD-12 (v1) pDAB4101(0)005.R001.AF): 0%

Structure (SMILES): O=C(O)COc1ccc(Cl)cc1Cl [2,4-D, 2,4-dichlorophenoxyacetic acid]
- overall population injury [2]: about 83%
- 2,4-D concentration beyond which bulked AAD-12 (v1) callus did not grow ([3]; 20, 40, 60, 80, 100, and 120 mg/L 2,4-D tested): ≤ 20 mg/L
- sub-lethal concentration of 2,4-D (above it lethal to the non-transformed cells) ([3]; LS-BY2C+dichlorprop medium): 10 mg/L

Structure (SMILES): Nc1c(Cl)c(F)nc(OCC(=O)O)c1Cl [Fluroxypyr]
- Relative Herbicide Tolerance ([4]; T0 event 1580[1]-004): High
- Relative Herbicide Tolerance ([4]; T0 event 1580[1]-005): Variable
- Relative Herbicide Tolerance ([4]; T0 event 1580[1]-008): Variable
- Relative Herbicide Tolerance ([4]; T0 event 1580[1]-011): High
- Relative Herbicide Tolerance ([4]; T0 event 1580[1]-015): High
- Relative Herbicide Tolerance ([4]; T0 event 1580[1]-016): High
- Relative Herbicide Tolerance ([4]; T0 event 1580[1]-017): High
- Relative Herbicide Tolerance ([4]; T0 event 1580[1]-018): Variable
- Relative Herbicide Tolerance ([4]; T0 event 1580[1]-019): Variable
- Relative Herbicide Tolerance ([4]; T0 event 1580[1]-022): Variable
- Relative Herbicide Tolerance ([4]; T0 event 1580[1]-023): Variable
- Relative Herbicide Tolerance ([4]; T0 event 1580[1]-024): Variable
- Relative Herbicide Tolerance ([4]; T0 event 1580[1]-026): Variable
- Relative Herbicide Tolerance ([4]; T0 event 1580[1]-027): Low
- Relative Herbicide Tolerance ([4]; T0 event 1580[1]-029): Variable
- Relative Herbicide Tolerance ([4]; T0 event 1580[1]-030): High
- Relative Herbicide Tolerance ([4]; T0 event 1580[1]-031): High
- Relative Herbicide Tolerance ([4]; T0 event 1580[1]-032): High

Structure (SMILES): O=C(O)COc1nc(Cl)c(Cl)cc1Cl [triclopyr]
- Rate relative to triclopyr (AAD-12 (v2); 6.8 μg AAD-12 (v2), 1 mM substrate): 1
- Rate (mAU/min) (AAD-12 (v2); 6.8 μg AAD-12 (v2), 1 mM substrate, 325 nm, background rate 1.4 mAU/min subtracted): 97 mAU/min
- inhibition at 2000 µM (AAD-12 (v2); read-out: Substrate inhibition at 2 mM): 0%
- rate of AAD-12 (v2) cleavage relative to that of 2,4-D (AAD-12 (v2); under maximal velocity conditions): ~5%
- substrate inhibition (AAD-12 (v2); up to 2 mM): No substrate inhibition
